{
  "source": "ChEMBL document CHEMBL1137802",
  "about": "“Specific antioxidant activity of caffeoyl derivatives and other natural phenolic compounds: LDL protection against oxidation and decrease in the proinflammatory lysophosphatidylcholine production” (J Nat Prod, 2001)",
  "format_in_all_cases": "functional, cell-free",
  "key": {"[1]": {"test": "Antioxidant activity against Cu2+-induced lipid peroxidation in human plasma LDL assessed as vitamin E consumption at 10 umol/L preincubated for 1 hr before Cu2+ challenge measured after 120 mins"}, "[2]": {"test": "Antioxidant activity against Cu2+-induced lipid peroxidation in human plasma LDL assessed as lysophosphatidylcholine formation at 5 umol/L preincubated for 1 hr before Cu2+ challenge measured after 60 mins"}, "[3]": {"test": "Antioxidant activity against Cu2+-induced lipid peroxidation in human plasma LDL assessed as conjugated diene formation at 10 umol/L preincubated for 1 hr before Cu2+ challenge measured after 270 mins"}, "[4]": {"test": "Antioxidant activity against Cu2+-induced lipid peroxidation in human plasma LDL assessed as vitamin E consumption at 20 umol/L preincubated for 1 hr before Cu2+ challenge measured after 210 mins"}, "[5]": {"test": "Antioxidant activity against Cu2+-induced lipid peroxidation in human plasma LDL assessed as vitamin E consumption at 5 umol/L preincubated for 1 hr before Cu2+ challenge measured after 15 mins"}, "[6]": {"test": "Antioxidant activity against Cu2+-induced lipid peroxidation in human plasma LDL assessed as maximal compound concentration at 10 umol/L preincubated for 1 hr before Cu2+ challenge measured after 150 mins relative to compound present at 0 min"}, "[7]": {"test": "Antioxidant activity against Cu2+-induced lipid peroxidation in human plasma LDL assessed as maximal compound concentration at 5 umol/L preincubated for 1 hr before Cu2+ challenge measured after 150 mins relative to compound present at 0 min"}, "[8]": {"test": "Antioxidant activity against Cu2+-induced lipid peroxidation in human plasma LDL assessed as conjugated diene formation at 20 umol/L preincubated for 1 hr before Cu2+ challenge measured after 90 mins"}, "[9]": {"test": "Antioxidant activity against Cu2+-induced lipid peroxidation in human plasma LDL assessed as maximal compound concentration at 20 umol/L preincubated for 1 hr before Cu2+ challenge measured after 120 mins relative to compound present at 0 min"}, "[10]": {"test": "Antioxidant activity against Cu2+-induced lipid peroxidation in human plasma LDL assessed as lysophosphatidylcholine formation at 10 umol/L preincubated for 1 hr before Cu2+ challenge measured after 360 mins"}, "[11]": {"test": "Antioxidant activity against Cu2+-induced lipid peroxidation in human plasma LDL assessed as conjugated diene formation at 5 umol/L preincubated for 1 hr before Cu2+ challenge measured after 360 mins"}, "[12]": {"test": "Antioxidant activity against Cu2+-induced lipid peroxidation in human plasma LDL assessed as conjugated diene formation at 20 umol/L preincubated for 1 hr before Cu2+ challenge measured after 60 mins"}, "[13]": {"test": "Antioxidant activity against Cu2+-induced lipid peroxidation in human plasma LDL assessed as maximal compound concentration at 5 umol/L preincubated for 1 hr before Cu2+ challenge measured after 90 mins relative to compound present at 0 min"}, "[14]": {"test": "Antioxidant activity against Cu2+-induced lipid peroxidation in human plasma LDL assessed as lysophosphatidylcholine formation at 10 umol/L preincubated for 1 hr before Cu2+ challenge measured after 180 mins"}, "[15]": {"test": "Antioxidant activity against Cu2+-induced lipid peroxidation in human plasma LDL assessed as vitamin E consumption at 10 umol/L preincubated for 1 hr before Cu2+ challenge measured after 60 mins"}, "[16]": {"test": "Antioxidant activity against Cu2+-induced lipid peroxidation in human plasma LDL assessed as conjugated diene formation at 20 umol/L preincubated for 1 hr before Cu2+ challenge measured after 360 mins"}, "[17]": {"test": "Antioxidant activity against Cu2+-induced lipid peroxidation in human plasma LDL assessed as conjugated diene formation at 20 umol/L preincubated for 1 hr before Cu2+ challenge measured after 180 mins"}, "[18]": {"test": "Antioxidant activity against Cu2+-induced lipid peroxidation in human plasma LDL assessed as maximal compound concentration at 20 umol/L preincubated for 1 hr before Cu2+ challenge measured after 180 mins relative to compound present at 0 min"}, "[19]": {"test": "Antioxidant activity against Cu2+-induced lipid peroxidation in human plasma LDL assessed as conjugated diene formation at 20 umol/L preincubated for 1 hr before Cu2+ challenge measured after 210 mins"}, "[20]": {"test": "Antioxidant activity against Cu2+-induced lipid peroxidation in human plasma LDL assessed as lysophosphatidylcholine formation at 20 umol/L preincubated for 1 hr before Cu2+ challenge measured after 360 mins"}, "[21]": {"test": "Antioxidant activity against Cu2+-induced lipid peroxidation in human plasma LDL assessed as vitamin E consumption at 10 umol/L preincubated for 1 hr before Cu2+ challenge measured after 270 mins"}, "[22]": {"test": "Antioxidant activity against Cu2+-induced lipid peroxidation in human plasma LDL assessed as lysophosphatidylcholine formation at 10 umol/L preincubated for 1 hr before Cu2+ challenge measured after 270 mins"}, "[23]": {"test": "Antioxidant activity against Cu2+-induced lipid peroxidation in human plasma LDL assessed as vitamin E consumption at 20 umol/L preincubated for 1 hr before Cu2+ challenge measured after 180 mins"}, "[24]": {"test": "Antioxidant activity against Cu2+-induced lipid peroxidation in human plasma LDL assessed as maximal compound concentration at 10 umol/L preincubated for 1 hr before Cu2+ challenge measured after 15 mins relative to compound present at 0 min"}, "[25]": {"test": "Antioxidant activity against Cu2+-induced lipid peroxidation in human plasma LDL assessed as maximal compound concentration at 5 umol/L preincubated for 1 hr before Cu2+ challenge measured after 270 mins relative to compound present at 0 min"}, "[26]": {"test": "Antioxidant activity against Cu2+-induced lipid peroxidation in human plasma LDL assessed as maximal compound concentration at 10 umol/L preincubated for 1 hr before Cu2+ challenge measured after 60 mins relative to compound present at 0 min"}, "[27]": {"test": "Antioxidant activity against Cu2+-induced lipid peroxidation in human plasma LDL assessed as maximal compound concentration at 10 umol/L preincubated for 1 hr before Cu2+ challenge measured after 90 mins relative to compound present at 0 min"}, "[28]": {"test": "Antioxidant activity against Cu2+-induced lipid peroxidation in human plasma LDL assessed as conjugated diene formation preincubated for 1 hr before Cu2+ challenge"}, "[29]": {"test": "Antioxidant activity against Cu2+-induced lipid peroxidation in human plasma LDL assessed as maximal compound concentration at 10 umol/L preincubated for 1 hr before Cu2+ challenge measured after 120 mins relative to compound present at 0 min"}, "[30]": {"test": "Antioxidant activity against Cu2+-induced lipid peroxidation in human plasma LDL assessed as maximal compound concentration at 20 umol/L preincubated for 1 hr before Cu2+ challenge measured after 15 mins relative to compound present at 0 min"}, "[31]": {"test": "Antioxidant activity against Cu2+-induced lipid peroxidation in human plasma LDL assessed as vitamin E consumption at 10 umol/L preincubated for 1 hr before Cu2+ challenge measured after 15 mins"}, "[32]": {"test": "Antioxidant activity against Cu2+-induced lipid peroxidation in human plasma LDL assessed as vitamin E consumption at 5 umol/L preincubated for 1 hr before Cu2+ challenge measured after 120 mins"}, "[33]": {"test": "Antioxidant activity against Cu2+-induced lipid peroxidation in human plasma LDL assessed as lysophosphatidylcholine formation at 10 umol/L preincubated for 1 hr before Cu2+ challenge measured after 210 mins"}},
  "data": [
    {"smiles": "CC(C)(Sc1cc(C(C)(C)C)c(O)c(C(C)(C)C)c1)Sc1cc(C(C)(C)C)c(O)c(C(C)(C)C)c1", "values": [
      {"measurement": "Activity", "setting": "[1]", "value": 0, "unit": "%"},
      {"measurement": "Activity", "setting": "[2]", "value": 2.5, "unit": "%"},
      {"measurement": "Activity", "setting": "[3]", "value": 79.9, "unit": "%"},
      {"measurement": "Activity", "setting": "[4]", "value": 0, "unit": "%"},
      {"measurement": "Activity", "setting": "[5]", "value": 45, "unit": "%"},
      {"measurement": "Activity", "setting": "[6]", "value": 19.8, "unit": "%"},
      {"measurement": "Activity", "setting": "[7]", "value": 28.6, "unit": "%"},
      {"measurement": "Activity", "setting": "[8]", "value": 0.7, "unit": "%"},
      {"measurement": "Activity", "setting": "[9]", "value": 43.2, "unit": "%"},
      {"measurement": "Activity", "setting": "[10]", "value": 19.2, "unit": "%"},
      {"measurement": "Activity", "setting": "[11]", "value": 100, "unit": "%"},
      {"measurement": "Activity", "setting": "[12]", "value": 1.3, "unit": "%"},
      {"measurement": "Activity", "setting": "[13]", "value": 55.3, "unit": "%"},
      {"measurement": "Activity", "setting": "[14]", "value": 6.2, "unit": "%"},
      {"measurement": "Activity", "setting": "[15]", "value": 0, "unit": "%"},
      {"measurement": "Activity", "setting": "[16]", "value": 2.3, "unit": "%"},
      {"measurement": "Activity", "setting": "[17]", "value": 2.6, "unit": "%"},
      {"measurement": "Activity", "setting": "[18]", "value": 34.4, "unit": "%"},
      {"measurement": "Activity", "setting": "[19]", "value": 2.6, "unit": "%"},
      {"measurement": "Activity", "setting": "[20]", "value": 1.9, "unit": "%"},
      {"measurement": "Activity", "setting": "[21]", "value": 0, "unit": "%"},
      {"measurement": "Activity", "setting": "[22]", "value": 12.9, "unit": "%"},
      {"measurement": "Activity", "setting": "[23]", "value": 0, "unit": "%"},
      {"measurement": "Activity", "setting": "[24]", "value": 86.6, "unit": "%"},
      {"measurement": "Activity", "setting": "[25]", "value": 22.5, "unit": "%"},
      {"measurement": "Activity", "setting": "[26]", "value": 34.1, "unit": "%"},
      {"measurement": "Activity", "setting": "[27]", "value": 27.2, "unit": "%"},
      {"measurement": "Activity", "setting": "[28]", "value": "Dose-dependent effect"},
      {"measurement": "Activity", "setting": "[29]", "value": 37.2, "unit": "%"},
      {"measurement": "Activity", "setting": "[30]", "value": 97, "unit": "%"},
      {"measurement": "Activity", "setting": "[31]", "value": 51.8, "unit": "%"},
      {"measurement": "Activity", "setting": "[32]", "value": 0, "unit": "%"},
      {"measurement": "Activity", "setting": "[33]", "value": 9.1, "unit": "%"}
    ]}
  ]
}
